The values that follow come from patent US20250197865A1, “PHARMACEUTICAL COMPOSITION FOR TREATMENT OR PREVENTION OF FIBROTIC DISEASE” (KYUSHU UNIVERSITY, NATIONAL UNIVERSITY CORPORATION, priority 2022, published 2025).

What all share (format): cell-based, mouse
The subject of one data set is Hsp47 mRNA. The data set can be described thus: siRNA treatment of myofibroblasts from carbon tetrachloride-induced fibrotic liver, Hsp47 mRNA by real-time RT-PCR. On the procedure: (§1) The mRNA expression levels of P4HA3 etc. in the examples of the present specification were quantified as follows. The concentration of purified RNA was determined using a microspectrophotometer DS-11 (DeNovix), and reverse transcription to cDNA was performed using a High Capacity cDNA Reverse Transcription Kit (Applied Biosystems). Quantification of mRNA was performed according to the protocol of Luna Universal qPCR Master Mix (New England BioLabs), with DNA polymerase activation at 95° C. for 60 seconds, followed by 45 cycles of cDNA denaturation at 95° C. for 15 seconds and extension at 60° C. for 30 seconds. Analysis was performed by the AACt method using GAPDH as an internal standard. Mouse Cyp7al probe was purchased from Applied Biosystems. […]
As in Example 3, the effect of suppressing P4HA3 mRNA expression on the mRNA expression of other fibrosis-related factors was examined in cultured myofibroblasts isolated from the liver 4 weeks after the start of carbon tetrachloride administration. […] After that, the purity of the isolated myofibroblasts was measured using FACS verse, and almost all of the CD45-negative cells after MACS were positive for α-SMA, a myofibroblast marker, and almost no contamination with blood cells was observed. […]
In general terms: Quantitative PCR measures a nucleic acid by following its amplification.

The subject of data set [1] is P4HA3 mRNA. The data set can be described thus: siRNA treatment of myofibroblasts from carbon tetrachloride-induced fibrotic liver, P4HA3 mRNA by real-time RT-PCR. Conditions: for mRNA expression of P4HA3: myofibroblasts from transiently fibrotic liver, siRNA 3.125 nM, FIG. 9. On the procedure:
(§2) The mRNA expression levels of P4HA3 etc. in the examples of the present specification were quantified as follows. The concentration of purified RNA was determined using a microspectrophotometer DS-11 (DeNovix), and reverse transcription to cDNA was performed using a High Capacity cDNA Reverse Transcription Kit (Applied Biosystems). Quantification of mRNA was performed according to the protocol of Luna Universal qPCR Master Mix (New England BioLabs), with DNA polymerase activation at 95° C. for 60 seconds, followed by 45 cycles of cDNA denaturation at 95° C. for 15 seconds and extension at 60° C. for 30 seconds. Analysis was performed by the AACt method using GAPDH as an internal standard. Mouse Cyp7al probe was purchased from Applied Biosystems. Primers and probes for mouse α-smooth muscle actin (α-SMA), CD68, 1α1 collagen (Col1α1), 1α2 collagen (Col1α2), 1α3 collagen (Col1α3), 6α1 collagen (Col6α1), 8α1 collagen (Co81α1), GAPDH (glyceraldehyde-3-phosphate dehydrogenase), heat shock protein 47 (Hsp47), prolyl 4-hydroxylase alphal subunit (P4HA1), prolyl 4-hydroxylase alpha2 subunit (P4HA2), and prolyl 4-hydroxylase alpha3 subunit (P4HA3) were purchased from Sigma-Aldrich.
As in Example 3, the effect of suppressing P4HA3 mRNA expression on the mRNA expression of other fibrosis-related factors was examined in cultured myofibroblasts isolated from the liver 4 weeks after the start of carbon tetrachloride administration. The liver was removed from a mouse model of carbon tetrachloride (CCl4)-induced fibrotic livers and divided into small pieces. After that, the liver pieces were washed with washing buffer [25 mM HEPES/[…]/HBSS(-)], and the cell solution containing myofibroblasts was collected by shaking the liver pieces three times for 30 min at 37° C. in . . . digestion buffer [0.1% Collagenase A/15 mM HEPES/HBSS(-)]. After that, blood cell components were removed with Red Blood Cell Lysis Buffer, and the cells were suspended in 10% FBS/1% Penicillin-Streptomycin/DMEM, and then seeded on a culture plate. After 6 hr, the medium was replaced to remove non-adherent cells and debris. After that, the cells were cultured overnight in a CO2 incubator, and non-adherent cells were again removed by washing with PBS, and adherent cells were collected using Accutase. After 20 min of reaction with CD45 antibody labeled with magnetic beads, CD45-positive blood cells were removed by MACS (magnetic cell sorting) using an LS column, and CD45-negative cells were collected as myofibroblasts. After that, the purity of the isolated myofibroblasts was measured using FACS verse, and almost all of the CD45-negative cells after MACS were positive for α-SMA, a myofibroblast marker, and almost no contamination with blood cells was observed. […]

For data set [2], the system named is mRNA expression of fibrosis-related factors (collagens, elastin) in myofibroblasts. The data set can be described thus: siRNA treatment of myofibroblasts from carbon tetrachloride-induced fibrotic liver, fibrosis-related factor mRNA by real-time RT-PCR. Conditions: for mRNA expression of 1α1 collagen / mRNA expression of other fibrosis-related factors: siRNA 3.125 nM, versus si Ctrl. On the procedure:
as §2
As in Example 3, the effect of suppressing P4HA3 mRNA expression on the mRNA expression of other fibrosis-related factors was examined in cultured myofibroblasts isolated from the liver 4 weeks after the start of carbon tetrachloride administration. The liver was removed from a mouse model of carbon tetrachloride (CCl4)-induced fibrotic livers and divided into small pieces. After that, the liver pieces were washed with washing buffer [25 mM HEPES/[…]/HBSS(-)], and the cell solution containing myofibroblasts was collected by shaking the liver pieces three times for 30 min at 37° C. in . . . digestion buffer [0.1% Collagenase A/15 mM HEPES/HBSS(-)]. After that, blood cell components were removed with Red Blood Cell Lysis Buffer, and the cells were suspended in 10% FBS/1% Penicillin-Streptomycin/DMEM, and then seeded on a culture plate. After 6 hr, the medium was replaced to remove non-adherent cells and debris. After that, the cells were cultured overnight in a CO2 incubator, and non-adherent cells were again removed by washing with PBS, and adherent cells were collected using Accutase. After 20 min of reaction with CD45 antibody labeled with magnetic beads, CD45-positive blood cells were removed by MACS (magnetic cell sorting) using an LS column, and CD45-negative cells were collected as myofibroblasts. After that, the purity of the isolated myofibroblasts was measured using FACS verse, and almost all of the CD45-negative cells after MACS were positive for α-SMA, a myofibroblast marker, and almost no contamination with blood cells was observed. Si P4HA3 #1 and si P4HA3 #2, ThermoFisher Scientific catalog numbers 4390771 and 4390771 (Assay ID: s115723 and s115721), were added to the myofibroblast culture at a final concentration of 3.125 nM using Lipofectamine RNAiMAX (Invitrogen). In experiments in which si P4HA3 #2 was not used, such as in Example 3, si P4HA3 #1 was used as “si P4HA3”. For siRNA control experiments, Silencer Select Negative Control no. 1 siRNA (ThermoFisher Scientific, catalog number: 4390843) was used as si Ctrl. The nucleotide sequences of the sense and antisense strands of si P4HA3 #1 are listed in the sequence listing attached hereto as SEQ ID NOs: 1 and 2, respectively. The nucleotide sequences of the sense and antisense strands of si P4HA3 #2 are listed in the sequence listing attached hereto as SEQ ID NOs: 3 and 4, respectively.
Si Hsp47 and si P4HA3 #1 from Example 7 were used as knockdown reagents for Hsp47 and P4HA3, respectively. For si Hsp47, ThermoFisher Scientific catalog number 4390771 (Assay ID: s232335) was used. Separation of cell type fractions from livers collected 4 weeks after the start of carbon tetrachloride administration was performed in the same manner as in Example 6. […]

The subject of data set [3] is P4HA3 mRNA. The data set can be described thus: P4HA3 knockdown in myofibroblasts from lungs of bleomycin-administered pulmonary fibrosis model mice, real-time RT-PCR. Conditions: FIG. 11-2. On the procedure:
as §1
(§3) Next, the inventors investigated the effect of suppressing P4HA3 mRNA expression on the mRNA expression of other fibrosis-related factors. […] The quantification of mRNA expression levels of P4HA3, etc. in myofibroblasts after siRNA treatment was performed in the same manner as in Example 2.
From the bleomycin-administered pulmonary fibrosis model mouse prepared in the same manner as in Example 4, the lungs were removed 7 days after bleomycin administration. […] Quantification of the mRNA expression levels of Cd68, a blood cell marker, 1α1 collagen, a fibrosis-related factor, and P4HA3 was performed in the same manner as in Example 2. […]

The subject of data set [4] is 1α1, 3α1 and 14α1 collagen mRNA expression in myofibroblasts. The data set can be described thus: Effect of P4HA3 knockdown on fibrosis-related factor mRNA in myofibroblasts from fibrotic lungs, real-time RT-PCR. Conditions: myofibroblasts from pulmonary fibrosis model mice; versus si Ctrl; FIG. 11-2.
The subject of data set [5] is periostin, 1α1 collagen and 3α1 collagen mRNA expression in myofibroblasts. The data set can be described thus: Effect of P4HA3 knockdown on fibrosis-related factor mRNA in myofibroblasts isolated from the infarcted area, real-time RT-PCR. To be noted: siRNA 3.125 nM, versus si Ctrl, FIG. 4. On the procedure: as §2
Next, the inventors investigated the effect of suppressing P4HA3 mRNA expression on the mRNA expression of other fibrosis-related factors. Myofibroblasts from the infarcted area of myocardial infarction disease model mice were cultured as described above in Nakaya, M. et al. (2017). Briefly, 3 days after coronary artery ligation, the ventricles of treated mice were digested with PBS containing 0.1% collagenase A (Roche Diagnostics) and 0.1% trypsin (Sigma-Aldrich) at 37° C. with agitation. The cells were placed on plates containing 10% FBS/DMEM overnight, and then the medium was replaced to remove non-adherent cells. The attached cells were cultured for more than 6 days and used as myofibroblasts in the following experiments. […] The quantification of mRNA expression levels of P4HA3, etc. in myofibroblasts after siRNA treatment was performed in the same manner as in Example 2.

In data set [6] the test system is P4HA3 mRNA. The data set can be described thus: P4HA3 knockdown by siRNA in myofibroblasts isolated from the infarcted area, real-time RT-PCR. To be noted: siRNA 3.125 nM, versus si Ctrl, FIG. 4. On the procedure:
as §1, §3

The mark [7] stands for this setting: myofibroblasts from transiently fibrotic liver, FIG. 9.

Consider “si Hsp47: siRNA for mouse Hsp47, SEQ ID NOs: 12 and 13; ThermoFisher Scientific catalog 4390771, Assay ID s232335 (chain 1 CGGACAGGCCTGTACAACTTT; chain 2 AGTTGTACAGGCCTGTCCGGT; listed as DNA, chemistry not given here) [reference compound]”, for which, in the data set on Hsp47 mRNA (myofibroblasts from CCl4 fibrotic liver, FIGS. 20A and B), the “effect of suppressing the mRNA expression of each target gene, si Hsp47 compared with si P4HA3” value is “stronger effect”. Also, in the data set with P4HA3 mRNA [1] (myofibroblasts from damaged fibrotic liver, FIG. 21-1 B), the “P4HA3 mRNA expression” value was “did not suppress P4HA3 mRNA expression at all”.

“si P4HA3 #1: siRNA #1 against mouse P4HA3, sense/antisense SEQ ID NOs: 1 and 2; ThermoFisher Scientific catalog 4390771, Assay ID s115723 (sense CCACGAGTATGGACAGGAATT; antisense TTCCTGTCCATACTCGTGGAT; listed as DNA, chemistry not given here)”: the “effect of suppressing the mRNA expression of fibrosis-related factors, si P4HA3 compared with si Hsp47” value in data set [2] (myofibroblasts from CCl4 fibrotic liver, 1α1, 3α1, 8α1, 14α1 collagen, FIG. 20 C to F) was “stronger effect”. Also, in data set [2] (myofibroblasts from damaged fibrotic liver, 1α1, 1α2, 3α1, 8α1, 14α1 collagen, elastin, FIGS. 21-1 C, D and 21-2 A to D), the “effect of suppressing the mRNA expression of fibrosis-related factors, single siRNAs and combination compared” value is given as “higher effect”. For the same substance, in data set [2] (setting [7]), the “difference in mRNA expression inhibitory effect between si P4HA3 #1 and si P4HA3 #2 for 3α1 collagen and elastin” value is given as “no significant difference”; the “mRNA expression of 1α1 collagen” value was “inhibited”; the “mRNA expression of other fibrosis-related factors” value is “inhibited”. In addition, in data set [2] (myofibroblasts from transiently fibrotic liver, P4HA3, collagens, elastin, FIG. 9), the “inhibitory activity for all mRNA expression, si P4HA3 #1 compared with si P4HA3 #2” value is reported as “stronger inhibitory activity than si P4HA3 #2”. The “mRNA expression level of P4HA3 reduced to” value in the data set on P4HA3 mRNA [3] (remaining level relative to si Ctrl) is on record as “less than 5%”. In addition, the “P4HA3 mRNA expression” value in the data set on P4HA3 mRNA [3] (versus si Ctrl) is recorded as “very strongly inhibited”. For the same substance, in data set [4], the “mRNA expression level of 1α1 collagen” value was “reduced to a fraction of their original levels”, the “mRNA expression level of 3α1 collagen” value was “reduced to a fraction of their original levels” and the “mRNA expression level of 14α1 collagen” value was “reduced to a fraction of their original levels”. For the same substance, in data set [5], the “expression of 1α1 collagen mRNA” value was “strongly inhibited”, the “expression of 3α1 collagen mRNA” value is given as “strongly inhibited” and the “expression of periostin mRNA” value was “strongly inhibited”. Further, the “Hsp47 mRNA expression” value with Hsp47 mRNA (myofibroblasts from damaged fibrotic liver, FIG. 21-1 A) is “slightly suppressed”. The “expression of P4HA3 gene” value in the data set on P4HA3 mRNA [1] (myofibroblasts from CCl4 liver fibrosis model, versus si Ctrl, FIG. 25) is “almost completely suppressed”. The “mRNA expression of P4HA3” value in the data set with P4HA3 mRNA [1] (versus si Ctrl) is “inhibited”. Further, the “expression of P4HA3 mRNA” value in the data set on P4HA3 mRNA [6] is “strongly inhibited”.

On to “si P4HA3 #2: siRNA #2 against mouse P4HA3, sense/antisense SEQ ID NOs: 3 and 4; ThermoFisher Scientific catalog 4390771, Assay ID s115721 (sense GCTCATAGCTCTCTACCATTT; antisense ATGGTAGAGAGCTATGAGCGG; listed as DNA, chemistry not given here)”, for which, in data set [2] (setting [7]), the “difference in mRNA expression inhibitory effect between si P4HA3 #1 and si P4HA3 #2 for 3α1 collagen and elastin” value is reported as “no significant difference”; the “mRNA expression of 1α1 collagen” value was “inhibited”; the “mRNA expression of other fibrosis-related factors” value is “inhibited”. The “mRNA expression of P4HA3” value in the data set on P4HA3 mRNA [1] (versus si Ctrl) was “inhibited”.
